Assay results: US20190031624A1, “THERAPEUTIC COMPOUNDS AND METHODS TO TREAT INFECTION” (priority 2017, published 2019)
Values after ≈ are worked out from the molar mass of the structure shown. Counter-ions that a name gives are not always drawn. Like-named read-outs stand apart in the source and are kept apart here.

Columns and labels:
P. aeruginosa PAO1 [1] = assay: Intrinsic MIC assay (CLSI broth microdilution); format: cell-based, Pseudomonas aeruginosa; settings: for MIC: Pseudomonas aeruginosa, read-out: Antibiotic Activity Against P. aeruginosa: Intrinsic MIC
Protocol: (§1) MIC assays were conducted in accordance with Clinical and Laboratory Standards Institute (CLSI) guidelines for broth microdilution. A 96-well plate containing cation-adjusted Mueller-Hinton (CAMH broth with 2-fold serial dilution of compounds was inoculated with log-phase bacterial at 5×10^5 CFU/mL. The final volume in each well was 100 μL. Each compound was tested in duplicate. The microtiter plates were incubated in an aerobic environment for 18 hours at 37° C. Then the bacterial growth was tested by reading the plate with a VersaMax plate reader (Molecular Devices, Inc.) at 600 nm. The MIC was defined as the lowest compound concentration that inhibited 90% of bacteria growth.
(§2) Pseudomonas aeruginosa PAO1

P. aeruginosa PAO1 [2] = assay: MIC assay in the presence of a bacterial efflux pump inhibitor (EPI); format: cell-based, Pseudomonas aeruginosa; settings: with 12.5 ug/ml of EPI (2S,4R)-4-(ammoniomethyl)-2-((6-(4-fluorophenyl)-1H-indole-2-carboxamido)methyl)pyrrolidin-1-ium, MIC90
Protocol: (§3) The ability of a compound to produce an antibiotic effect can be determined using a method as described in Example 21. Data for representative compounds used in combination with the efflux pump inhibitor [(2S,4R)-4-(ammoniomethyl)-2-((6-(4-fluorophenyl)-1H-indole-2-carboxamido)methyl)pyrrolidin-1-ium] is shown in Table 1.
as §1, §2
(§4) The EPI assay for the purposes of these studies represents a MIC assay in which the MIC of the antibiotic against the bacteria is tested in the presence of an experimental efflux pump inhibitor (EPI). The highest concentration of the EPI present in the assay typically is ½ of the intrinsic MIC of the compound. If the intrinsic MIC of the EPI is greater than 100 μg/mL, the EPI assay was tested with 50 μg/mL. Using serial dilutions of the EPI, its enhancement of antibiotic activity was then evaluated. The relative EPI activity was decided by comparing the MIC of the antibiotic in the presence of the EPI compound with the intrinsic MIC of the antibiotic alone. For comparative purposes, we generally used EPIs at concentration of 12.5 and 6.25 μg/ml against varying concentration of our test antibiotic.

E. coli 25922 [3] = assay: Intrinsic MIC assay (CLSI broth microdilution); format: cell-based, Escherichia coli; settings: for MIC: read-out: Antibiotic Activity Against E. coli: Intrinsic MIC
Protocol: as §1
(§5) Escherichia coli ATCC 25922

E. coli 25922 [4] = assay: MIC assay in the presence of a bacterial efflux pump inhibitor (EPI); format: cell-based, Escherichia coli; settings: with 12.5 ug/ml of EPI (2S,4R)-4-(ammoniomethyl)-2-((6-(4-fluorophenyl)-1H-indole-2-carboxamido)methyl)pyrrolidin-1-ium, MIC90
Protocol: as §3, §1, §5, §4

[5] = target: T1, MexAB-OprM efflux transporter (Pseudomonas aeruginosa, UniProt P52002); settings: wild-type P. aeruginosa; cited from earlier work
T1 construct: MexAB-OprM efflux transporter present in wild-type P. aeruginosa; endogenous in cells; host or cells: wild-type P. aeruginosa
T1 sequence (Q51487 18-485): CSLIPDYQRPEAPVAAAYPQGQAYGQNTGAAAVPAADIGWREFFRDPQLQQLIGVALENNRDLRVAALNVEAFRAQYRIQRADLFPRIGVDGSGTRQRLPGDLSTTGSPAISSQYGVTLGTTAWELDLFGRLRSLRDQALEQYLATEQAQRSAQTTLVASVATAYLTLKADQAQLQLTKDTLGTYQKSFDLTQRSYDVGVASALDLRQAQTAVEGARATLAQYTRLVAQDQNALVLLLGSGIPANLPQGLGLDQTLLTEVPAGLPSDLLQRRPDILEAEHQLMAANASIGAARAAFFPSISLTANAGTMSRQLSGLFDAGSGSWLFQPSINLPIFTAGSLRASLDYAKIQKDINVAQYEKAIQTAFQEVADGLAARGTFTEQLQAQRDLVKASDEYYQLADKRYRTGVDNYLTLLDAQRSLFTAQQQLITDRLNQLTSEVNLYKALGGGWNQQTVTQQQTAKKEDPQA
T1 sequence (P52477 24-383, further chain): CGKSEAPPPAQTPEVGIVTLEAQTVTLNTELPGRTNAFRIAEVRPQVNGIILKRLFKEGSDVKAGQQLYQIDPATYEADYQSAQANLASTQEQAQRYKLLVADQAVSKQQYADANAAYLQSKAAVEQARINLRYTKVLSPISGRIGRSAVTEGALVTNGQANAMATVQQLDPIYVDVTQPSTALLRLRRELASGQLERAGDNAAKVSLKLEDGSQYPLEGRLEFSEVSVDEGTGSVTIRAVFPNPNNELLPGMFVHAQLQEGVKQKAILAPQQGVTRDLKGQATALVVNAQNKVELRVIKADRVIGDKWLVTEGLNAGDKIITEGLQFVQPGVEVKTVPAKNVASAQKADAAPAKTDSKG
T1 sequence (P52002 whole entry): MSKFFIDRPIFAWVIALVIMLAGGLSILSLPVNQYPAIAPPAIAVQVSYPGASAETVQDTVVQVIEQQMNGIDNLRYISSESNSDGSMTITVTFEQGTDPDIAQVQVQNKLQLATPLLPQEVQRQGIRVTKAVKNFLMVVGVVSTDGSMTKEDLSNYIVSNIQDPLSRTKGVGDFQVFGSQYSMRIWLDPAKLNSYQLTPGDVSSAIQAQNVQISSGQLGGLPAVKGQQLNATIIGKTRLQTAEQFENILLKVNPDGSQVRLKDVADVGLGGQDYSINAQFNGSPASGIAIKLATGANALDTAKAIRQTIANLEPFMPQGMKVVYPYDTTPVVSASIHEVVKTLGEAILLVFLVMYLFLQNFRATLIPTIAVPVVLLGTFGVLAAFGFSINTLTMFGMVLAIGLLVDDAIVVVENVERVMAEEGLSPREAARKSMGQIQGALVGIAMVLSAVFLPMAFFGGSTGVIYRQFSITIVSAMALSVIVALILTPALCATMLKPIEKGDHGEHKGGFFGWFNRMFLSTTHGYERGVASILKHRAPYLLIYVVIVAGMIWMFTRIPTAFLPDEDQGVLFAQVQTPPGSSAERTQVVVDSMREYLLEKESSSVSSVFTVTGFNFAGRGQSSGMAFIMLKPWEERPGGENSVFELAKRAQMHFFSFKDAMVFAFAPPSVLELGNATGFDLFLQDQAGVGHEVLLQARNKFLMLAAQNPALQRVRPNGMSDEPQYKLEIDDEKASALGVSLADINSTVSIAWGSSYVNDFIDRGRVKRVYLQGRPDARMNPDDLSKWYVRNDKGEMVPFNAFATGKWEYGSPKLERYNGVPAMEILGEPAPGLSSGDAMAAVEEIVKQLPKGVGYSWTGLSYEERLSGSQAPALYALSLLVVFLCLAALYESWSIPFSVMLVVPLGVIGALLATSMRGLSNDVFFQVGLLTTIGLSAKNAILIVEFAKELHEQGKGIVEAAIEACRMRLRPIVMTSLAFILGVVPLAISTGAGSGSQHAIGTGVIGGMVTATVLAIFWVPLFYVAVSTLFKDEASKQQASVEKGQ

MreB = settings: P. aeruginosa strains with defective efflux transporters; cited from earlier work
[6] = 18 h, P. aeruginosa PAO1, without EPI, MIC90
[7] = Escherichia coli, 18 h, E. coli 25922, without EPI, MIC90

MIC (P. aeruginosa PAO1 [1]; [6]) [µg/mL]	Antibiotic Activity Against P. aeruginosa: MIC with EPI (Enhancement) (P. aeruginosa PAO1 [2]) [µg/mL]	MIC (E. coli 25922 [3]; [7]) [µg/mL]	Antibiotic Activity Against E. coli: MIC with EPI (Enhancement) (E. coli 25922 [4]) [µg/mL]	Compound	efflux transporter substrate [5]	MreB inhibition (MreB)	MIC (P. aeruginosa PAO1 [1]; PAO1, 18 h) [µg/mL]	MIC (E. coli 25922 [3]; Escherichia coli, 25922, 18 h) [µg/mL]	Antibiotic Activity Against P. aeruginosa: Intrinsic MIC (P. aeruginosa PAO1 [1]; P. aeruginosa PAO1, without EPI, MIC90) [μ/mL]	Antibiotic Activity Against E. coli: Intrinsic MIC (E. coli 25922 [3]; E. coli 25922, without EPI, MIC90) [µg/mL]
> 256	>256	> 256	>256	N=C(N)SCc1ccc2ncccc2c1 [Example 18, quinolin-6-ylmethyl Carbamimidothioate Hydrobromide]	–	–	–	–	–	–
> 256	4	> 256	16	Cl.N=C(N)SCc1ccc2ccccc2c1 [Example 12, naphthalen-2-ylmethyl Carbamimidothioate Hydrobromide]	–	–	–	–	–	–
> 256	16	> 256	16	CN1CN=C(SCc2ccc3ccccc3c2)NC1 [Example 13, 3-methyl-6-((naphthalen-2-ylmethyl)thio)-1,2,3,4-tetrahydro-1,3,5-triazine]	–	–	–	–	–	–
16	4	> 256	>256	N=C(N)SCc1ccc2occc2c1 [Example 15, benzofuran-5-ylmethyl Carbamimidothioate Hydrobromide]	–	–	–	–	–	–
> 256	>256	> 256	>256	Br.N=C(N)SCc1cccc2cccnc12 [Example 19, quinolin-8-ylmethyl Carbamimidothioate Hydrobromide]	–	–	–	–	–	–
> 256	4	> 256	>256	N=C(N)SCc1ccc2sccc2c1 [Example 16, Benzo[b]thiophen-5-ylmethyl Carbamimidothioate Hydrobromide]	–	–	–	–	–	–
> 256	>256	> 128	128	CC(C)(C)OC(=O)n1ccc2cc(CSC(=N)N)ccc21 [Example 17, t-Butyl 5-((carbamimidoylthio)methyl)-1H-indole-1-carboxylate]	–	–	–	–	–	–

The next lines start with the compound.

Compound	MIC (P. aeruginosa PAO1 [1]; [6]) [µg/mL]	Antibiotic Activity Against P. aeruginosa: MIC with EPI (Enhancement) (P. aeruginosa PAO1 [2]) [µg/mL]	MIC (E. coli 25922 [3]; [7]) [µg/mL]	Antibiotic Activity Against E. coli: MIC with EPI (Enhancement) (E. coli 25922 [4]) [µg/mL]	efflux transporter substrate [5]	MreB inhibition (MreB)	MIC (P. aeruginosa PAO1 [1]; PAO1, 18 h) [µg/mL]	MIC (E. coli 25922 [3]; Escherichia coli, 25922, 18 h) [µg/mL]	Antibiotic Activity Against P. aeruginosa: Intrinsic MIC (P. aeruginosa PAO1 [1]; P. aeruginosa PAO1, without EPI, MIC90) [μ/mL]	Antibiotic Activity Against E. coli: Intrinsic MIC (E. coli 25922 [3]; E. coli 25922, without EPI, MIC90) [µg/mL]
N=C(N)SCCc1ccc(Cl)c(Cl)c1 [Example 4, 3,4-dichlorophenethyl carbamimidothioate]	> 256	>256	256 (≈ 1030 µM)	256	–	–	–	–	–	–
Br.N=C(N)SCc1ccc(-c2ccc(F)cc2)cc1 [Example 9, (4′-fluoro-[1,1′-biphenyl]-4-yl)methyl Carbamimidothioate Hydrobromide]	> 256	>256	64	64	–	–	–	–	–	–
Br.CC(C)(C)c1ccc(CSC(=N)N)cc1 [Example 3, 4-(t-Butyl)Benzyl Carbamimidothioate Hydrobromide]	> 256	256	256	256	–	–	–	–	–	–
N=C(N)SCc1ccc(Cl)c(Cl)c1 [Example A22, S-(3,4-Dichlorobenzyl)isothiourea]	–	–	–	–	substrate for the MexAB-OprM efflux transporter	effective MreB inhibitor	–	–	–	–
Cl.N=C(N)SCc1ccc(Cl)c(Cl)c1 [Example 1, 3,4-Dichlorobenzyl Carbamimidothioate Hydrobromide]	> 256	0.5	64	4	–	–	–	–	–	–
N=C(N)SCc1ccc(C(F)(F)F)nc1 [Example 14, (6-(trifluoromethyl)pyridin-3-yl)methyl Carbamimidothioate Hydrochloride]	–	>256	–	>256	–	–	> 256	> 256	–	–
N=C(N)SCc1cccc(-c2ccc(F)cc2)c1 [Example 10, (4′-fluoro-[1,1′-biphenyl]-3-yl)methyl Carbamimidothioate Hydrobromide]	> 256	>256	64	64	–	–	–	–	–	–
CNC(=N)SCc1ccc(Cl)c(Cl)c1.Cl [Example 6, 3,4-dichlorobenzyl Methylcarbamimidothioate Hydrobromide]	> 256	4.0	> 256	>256	–	–	–	–	–	–
N=C(N)SCc1cccc(Br)c1 [Example 8, 3-bromobenzyl Carbamimidothioate Hydrobromide]	–	>256	–	>256	–	–	> 256	> 256	–	–
N=C(N)SCc1cccc2ccccc12 [Example 11, naphthalen-1-ylmethyl Carbamimidothioate Hydrobromide]	> 256	>256	> 256	>256	–	–	–	–	–	–
Br.N=C(N)SCc1ccc(Br)cc1 [Example 7, 4-Bromobenzyl Carbamimidothioate Hydrobromide]	> 256	1.0	> 256	>256	–	–	–	–	–	–
Br.CC(SC(=N)N)c1ccc(Cl)c(Cl)c1 (stereo not shown) [Example 5, 1-(3,4-Dichlorophenyl)ethyl Carbamimidothioate Hydrobromide]	> 256	4.0	256	256	–	–	–	–	–	–
Br.N=C(N)SCc1ccc(Cl)cc1Cl [Example 2, 2,4-Dichlorobenzyl Carbamimidothioate Hydrobromide]	> 256	1.0	> 256	>256	–	–	–	–	–	–
Isoquinolin-5-ylmethyl Carbamimidothioate Hydrobromide [Example 20]	–	>256	–	>256	–	–	–	–	>256	>256
